Experimental findings from publication PMC9329436, “Optimization of the 4-anilinoquin(az)oline scaffold as epidermal growth factor receptor (EGFR) inhibitors for chordoma utilizing a toxicology profiling assay platform” (Scientific Reports, 2022) are described below.

Sequence of EGFR (P00533 25-1210): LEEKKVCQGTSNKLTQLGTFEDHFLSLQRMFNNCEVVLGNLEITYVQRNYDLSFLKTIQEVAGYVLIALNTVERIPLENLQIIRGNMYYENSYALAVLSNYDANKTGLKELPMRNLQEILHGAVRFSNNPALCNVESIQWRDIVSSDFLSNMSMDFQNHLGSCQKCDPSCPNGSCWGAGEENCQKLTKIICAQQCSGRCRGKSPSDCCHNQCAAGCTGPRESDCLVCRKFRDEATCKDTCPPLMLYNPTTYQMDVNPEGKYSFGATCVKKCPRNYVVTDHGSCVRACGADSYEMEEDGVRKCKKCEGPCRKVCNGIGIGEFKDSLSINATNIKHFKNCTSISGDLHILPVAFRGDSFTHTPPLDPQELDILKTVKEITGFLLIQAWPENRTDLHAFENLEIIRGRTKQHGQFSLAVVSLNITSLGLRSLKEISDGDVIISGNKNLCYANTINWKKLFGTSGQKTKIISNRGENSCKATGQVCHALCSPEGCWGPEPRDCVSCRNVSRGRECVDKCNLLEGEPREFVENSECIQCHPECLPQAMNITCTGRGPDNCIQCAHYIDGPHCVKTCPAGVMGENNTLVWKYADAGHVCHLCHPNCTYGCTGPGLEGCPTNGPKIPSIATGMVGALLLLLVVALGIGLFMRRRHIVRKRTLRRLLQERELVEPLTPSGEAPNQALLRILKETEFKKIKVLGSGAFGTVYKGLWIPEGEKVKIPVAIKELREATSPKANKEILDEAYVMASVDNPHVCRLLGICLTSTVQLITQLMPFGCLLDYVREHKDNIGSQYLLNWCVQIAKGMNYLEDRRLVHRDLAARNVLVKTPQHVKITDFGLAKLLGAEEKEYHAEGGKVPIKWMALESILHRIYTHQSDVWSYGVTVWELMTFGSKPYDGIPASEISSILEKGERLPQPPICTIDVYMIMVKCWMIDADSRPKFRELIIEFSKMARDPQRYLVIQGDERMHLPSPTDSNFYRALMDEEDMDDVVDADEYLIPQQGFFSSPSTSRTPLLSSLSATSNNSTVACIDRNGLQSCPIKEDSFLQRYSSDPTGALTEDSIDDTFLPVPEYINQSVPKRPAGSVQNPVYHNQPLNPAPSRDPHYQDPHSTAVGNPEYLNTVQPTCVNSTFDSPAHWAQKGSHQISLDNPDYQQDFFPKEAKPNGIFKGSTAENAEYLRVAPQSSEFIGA

The test system of the first data set is U-CH1 chordoma cell line. Nature of the data set: Cell viability assay (alamarBlue, 72 h), U-CH1. The data set is classed as cell-based, human. Conditions: n = 4, 72 h. An outline of the steps:
(§1)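 Cells grown in 4:1 IMDM:RPMI with 10% FBS on gel-coated flasks, dosed in quadruplicate 24 h after seeding in 384-well plates.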
On the technique in general: The colour change of resazurin is a common sign of viable cells or microbes.
For orientation: IC50 means the concentration that inhibits the measured activity by half. Read a low IC50 as higher potency. Take `C#Cc1cccc(Nc2ncnc3cc(OC)ccc23)c1` [Compound 11]: the IC50 turned out to be 1.9 µM.
In turn, `C#Cc1ccc(F)c(Nc2ncnc3ccc(I)cc23)c1` [Compound 34] yielded an IC50 of 27 µM.
As for `C#Cc1cccc(Nc2ccnc3cc(I)ccc23)c1F` [Compound 39], 2.4 µM corresponded to half-maximal inhibition (IC50).
With `C#Cc1cc(Nc2ncnc3ccc(I)cc23)ccc1F` [Compound 36], inhibition was half-maximal at 2.7 µM (IC50).

Another data set deals with U-CH2 chordoma cell line. Description: Cell viability assay (alamarBlue, 72 h), U-CH2. Conditions: n = 4, 72 h. The format is cell-based, human. A digest of the protocol: as §1
Compound `C#Cc1cccc(Nc2ncnc3cc(OC)ccc23)c1` [Compound 11] had an IC50 of 1.2 µM.
Turning to `C#Cc1ccc(F)c(Nc2ncnc3ccc(I)cc23)c1` [Compound 34], the IC50 is more than 100 µM.
Same read-out and setting: in the case of `C#Cc1cccc(Nc2ccnc3cc(I)ccc23)c1F` [Compound 39] it was 15 µM; in that of `C#Cc1cc(Nc2ncnc3ccc(I)cc23)ccc1F` [Compound 36], more than 100 µM.

The subject of a further data set is CH22 patient-derived chordoma cell line. Nature of the data set: Cell viability assay (alamarBlue, 72 h), CH22. The data set is classed as cell-based, human. Conditions: n = 4, 72 h. As for the experimental part:
(§2) Chordoma cell lines were cultured as described previously[10],[12],[33],[34]. Briefly, U-CH1 and U-CH2 cell lines were cultured in 4:1 IMDM:RPMI medium supplemented with 10% fetal bovine serum (FBS) and 1% penicillin/streptomycin in gel-coated flasks. […] CH22, UM-Chor1, U-CH12, and U-CH7 cell lines were cultured in RPMI medium supplemented with 10% FBS and 1% penicillin/streptomycin. The cell lines all undergo regular mycoplasma screening.
(§3) Cells were seeded in 384 well plates and were treated with test compound in quadruplicate 24 h after plating. Cell viability was assessed at 72 h using alamarBlue (ThermoFisher, USA). […] IC50 values were determined by four-parameter nonlinear regression analyses using GraphPad Prism™ version 8 software (San Diego, CA).
`C#Cc1cccc(Nc2ncnc3cc(OC)ccc23)c1` [Compound 11] showed an IC50 of more than 100 µM.
Turning to `C#Cc1ccc(F)c(Nc2ncnc3ccc(I)cc23)c1` [Compound 34], the concentration for half-maximal inhibition (IC50) is more than 100 µM.
Same read-out and setting: in the case of `C#Cc1cccc(Nc2ccnc3cc(I)ccc23)c1F` [Compound 39] it was 40 µM; in that of `C#Cc1cc(Nc2ncnc3ccc(I)cc23)ccc1F` [Compound 36], more than 100 µM.

For the next data set, the system named is UM-Chor1 patient-derived chordoma cell line. Nature of the data set: Cell viability assay (alamarBlue, 72 h), UM-Chor1. The data set is classed as cell-based, human. The following applies: n = 4, 72 h. As for the experimental part:
as §2, §3
Take `C#Cc1cccc(Nc2ncnc3cc(OC)ccc23)c1` [Compound 11]: the IC50 is more than 100 µM.
Same read-out and setting: in the case of `C#Cc1ccc(F)c(Nc2ncnc3ccc(I)cc23)c1` [Compound 34] it was more than 100 µM.
`C#Cc1cccc(Nc2ccnc3cc(I)ccc23)c1F` [Compound 39] registered an IC50 of 62 µM.
The same measure, in the same setting: in the case of `C#Cc1cc(Nc2ncnc3ccc(I)cc23)ccc1F` [Compound 36] it was more than 100 µM.

The next data set has as its system U-CH12 patient-derived chordoma cell line. Nature of the data set: Cell viability assay (alamarBlue, 72 h), U-CH12. The data set is classed as cell-based, human. Conditions: n = 4, 72 h. As for the experimental part:
as §2, §3
As for `C#Cc1cccc(Nc2ncnc3cc(OC)ccc23)c1` [Compound 11], the IC50 was more than 100 µM.
On the same count and under the same terms, in the case of `C#Cc1ccc(F)c(Nc2ncnc3ccc(I)cc23)c1` [Compound 34] it was more than 100 µM.
Same read-out and setting: in the case of `C#Cc1cccc(Nc2ccnc3cc(I)ccc23)c1F` [Compound 39] it was 33 µM; in that of `C#Cc1cc(Nc2ncnc3ccc(I)cc23)ccc1F` [Compound 36], more than 100 µM.

A further data set has as its system U-CH7 patient-derived chordoma cell line. Nature of the data set: Cell viability assay (alamarBlue, 72 h), U-CH7. The data set is classed as cell-based, human. The following applies: n = 4, 72 h. As for the experimental part:
as §2, §3
Turning to `C#Cc1cccc(Nc2ncnc3cc(OC)ccc23)c1` [Compound 11], the IC50 came to 95 µM.
On the same count and under the same terms, in the case of `C#Cc1ccc(F)c(Nc2ncnc3ccc(I)cc23)c1` [Compound 34] it was more than 100 µM; in that of `C#Cc1cccc(Nc2ccnc3cc(I)ccc23)c1F` [Compound 39], 49 µM.
As for `C#Cc1cc(Nc2ncnc3ccc(I)cc23)ccc1F` [Compound 36], the IC50 is more than 100 µM.

For a further data set, the system named is WS1 human fibroblast cell line. Description: Cell viability assay, WS1 toxicity control. The format is cell-based. The following applies: n = 4, nonspecific toxicity control. On the procedure: as §3
Regarding `C#Cc1cccc(Nc2ncnc3cc(OC)ccc23)c1` [Compound 11], the IC50 was determined as 88 µM.
On the same count and under the same terms, in the case of `C#Cc1ccc(F)c(Nc2ncnc3ccc(I)cc23)c1` [Compound 34] it was more than 100 µM; in that of `C#Cc1cccc(Nc2ccnc3cc(I)ccc23)c1F` [Compound 39], 40 µM; in that of `C#Cc1cc(Nc2ncnc3ccc(I)cc23)ccc1F` [Compound 36], more than 100 µM.

A further data set relates to HL60 cells. Description: AsedaSciences SYSTEMETRIC Cell Health Screen (flow cytometry toxicity profiling). The following applies: HL60, 4 h, 5 nM–100 µM, probability 0–1, n = 2. An outline of the steps:
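HL60 cells (100,000 per well) exposed 4 h at 37 °C, 5% CO2 to 10-step 3× dilutions (5 nM–100 µM), in duplicate. Cells then stained with mitochondrial and cell-stress reporter dyes and read by ungated flow cytometry over twelve parameters. Cell Health Index and eight endpoint scores come from an ML classifier trained on 300 high/low-risk compounds.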
A general note: A flow cytometer gives signals particle by particle.
In the case of `C#Cc1cccc(Nc2ncnc3cc(OC)ccc23)c1` [Compound 11], the “CC: Cell Cycle score” value was 0.52, the “CM: Cell morphology score” value is 0.050, the “CMI: Cell membrane integrity score” value is recorded as 0.032 and the “GSH: Glutathione score” value is given as 0.0085. In addition, the “MMP: Mitochondrial membrane depolarization score” value is listed as 0.068, the “NMI1: Nuclear membrane integrity 1 score” value stood at 0.61, the “NMI2: Nuclear membrane integrity 2 score” value came out at 0.15 and the “ROS: Reactive superoxide species score” value is given as 0.63.
For `C#Cc1ccc(F)c(Nc2ncnc3ccc(I)cc23)c1` [Compound 34], the “CC: Cell Cycle score” value was 0.25, the “CM: Cell morphology score” value worked out at 0.025, the “CMI: Cell membrane integrity score” value stood at 0.014 and the “GSH: Glutathione score” value is listed as 0.044. Further, the “MMP: Mitochondrial membrane depolarization score” value was found to be 0.030, the “NMI1: Nuclear membrane integrity 1 score” value was determined as 0.17, the “NMI2: Nuclear membrane integrity 2 score” value is recorded as 0.078 and the “ROS: Reactive superoxide species score” value worked out at 0.074.
Regarding `C#Cc1cccc(Nc2ccnc3cc(I)ccc23)c1F` [Compound 39], the “CC: Cell Cycle score” value is 0.64, the “CM: Cell morphology score” value is recorded as 0.98, the “CMI: Cell membrane integrity score” value is reported as 0.30 and the “GSH: Glutathione score” value was 0.92. Besides, the “MMP: Mitochondrial membrane depolarization score” value is reported as 0.60, the “NMI1: Nuclear membrane integrity 1 score” value was determined as 0.15, the “NMI2: Nuclear membrane integrity 2 score” value is listed as 0.75 and the “ROS: Reactive superoxide species score” value was found to be 0.99.
`C#Cc1cc(Nc2ncnc3ccc(I)cc23)ccc1F` [Compound 36]: the “CC: Cell Cycle score” value was 0.038, the “CM: Cell morphology score” value worked out at 0.011, the “CMI: Cell membrane integrity score” value was 0.31 and the “GSH: Glutathione score” value is recorded as 0.068. The “MMP: Mitochondrial membrane depolarization score” value is recorded as 0.13, the “NMI1: Nuclear membrane integrity 1 score” value was found to be 0.24, the “NMI2: Nuclear membrane integrity 2 score” value amounted to 0.048 and the “ROS: Reactive superoxide species score” value is 0.35.

The data set is the same for the next values; noted with them: HL60, 4 h, 5 nM–100 µM, probability (0–1) of high-risk class, n = 2.
`C#Cc1cccc(Nc2ncnc3cc(OC)ccc23)c1` [Compound 11]: the “CHI: Cell Health Index” value is recorded as 0.25.
On to `C#Cc1ccc(F)c(Nc2ncnc3ccc(I)cc23)c1` [Compound 34], for which the “CHI: Cell Health Index” value is on record as 0.18.
Still for that read-out and setting: in the case of `C#Cc1cccc(Nc2ccnc3cc(I)ccc23)c1F` [Compound 39] it was 0.43; in that of `C#Cc1cc(Nc2ncnc3ccc(I)cc23)ccc1F` [Compound 36], 0.27.

The target of a further data set is EGFR (Homo sapiens, UniProt P00533). Nature of the data set: ProQinase in-cell EGFR assay (EGFR phosphorylation in A431 cells). On the set-up: This cell line endogenously expresses a high level of EGFR; endogenous in cells; host or cells: A431. The format is cell-based. Conditions: ProQinase in-cell EGFR assay, A431 cells, n = 1. An excerpt:
In addition, we ran an EGFR in-cell target engagement assay, measuring in-cell EGFR phosphorylation, using the human epidermoid carcinoma cell line A431. This cell line endogenously expresses a high level of EGFR, and stimulation of these cells with human epidermal growth factor (EGF) results in receptor tyrosine autophosphorylation.
Compound `C#Cc1cccc(Nc2ncnc3cc(OC)ccc23)c1` [Compound 11] displayed a half-inhibitory concentration (IC50) of 0.53 µM.
Still for that read-out and setting: in the case of `C#Cc1ccc(F)c(Nc2ncnc3ccc(I)cc23)c1` [Compound 34] it was 0.76 µM; in that of `C#Cc1cccc(Nc2ccnc3cc(I)ccc23)c1F` [Compound 39], 1.7 µM; in that of `C#Cc1cc(Nc2ncnc3ccc(I)cc23)ccc1F` [Compound 36], 2.7 µM.
